pIC50, pKd, pKi: −log10 of the molar value. Read-outs that look alike come from different tables or passages of the source.
Assays:
MsepCSP8 = MsepCSP8 (Mythimna separata, UniProt A0A1V1WC03); experiment: Fluorescence competitive binding assay with 1-NPN as fluorescent probe; settings: for pIC50: displacement of 1-NPN; for pKi: calculated from IC50; for binding affinity to MsepCSP8 in words: discussion of Table 1, pH not stated; for pKd: dissociation constant, saturation and Scatchard plot
Procedure: The expressed protein was obtained in soluble form in the supernatant, and purification was accomplished using a Ni affinity chromatography column (GE Healthcare, Uppsala, Sweden). Bound protein was eluted by digestion with recombinant bovine enterokinase at 26°C for 15 h to remove the His-tag. Expression and purification were verified by 15% sodium dodecyl sulfate-polyacrylamide gel electrophoresis (SDS-PAGE), and protein concentration was measured as described by [Cao et al. (2017)]. Dialysis of purified protein was carried out in 30 mM Tris-HCl buffer [Tris(hydroxymethyl)aminomethane] at pH 7.4 and pH 5.0 before fluorescence binding assays, and protein was stored at -80°C until use.
Fluorescence competitive binding assays were performed to determine the binding affinity of MsepCSP8 for 56 ligands using N-phenyl-1-naphthylamine (1-NPN) as a fluorescent probe. Stock solutions of ligands were prepared in spectrophotometric-grade methanol. […] Mixtures of 1-NPN and protein were excited at 337 nm wavelength, and emission spectra were recorded from 360 to 600 nm using a fluorescence spectrophotometer (RF-5301PC Shimadzu, Kyoto, Japan). Binding of selected ligands with MsepCSP8 (1:1 protein:ligand stoichiometry) was evaluated using 1-NPN as a fluorescent probe, with the final concentration of the product ranging from 0 to 20 μM. […] Three independent measurements were made for all experiments. The binding affinity (Ki) of MsepCSP8 for all tested ligands was calculated based on IC50 values as follows:
Ki=IC50/(1 + [1−NPN]/K1–NPN)
where [1-NPN] is the free concentration of 1-NPN, and K1-NPN is the dissociation constant of the complex of MsepCSP8 and 1-NPN.

Mythimna separata = experiment: Y-tube olfactometer bioassay (before RNAi); format: in vivo
Excerpt: Mythimna separata behavioral responses were examined by olfactometer bioassays ([Cao et al., 2015]) performed in a glass Y-tube (base = 4.0 cm diameter by 25 cm length, arms = 3.0 cm diameter by 26 cm length) using 10 different volatile compounds (Sigma-Aldrich).
Air entering the tube was passed through activated charcoal for filtration and humidified using deionised water. Filtered air was split between two chambers; one chamber containing liquid paraffin (used as control) and the other containing the test volatile. Each chamber was connected to one arm of the Y-tube. Airflow was kept constant at 6.0 l min^-1 throughout the experiment using an inline flow meter (Gilmont Instr., Barnant Co., Barrington, IL, United States). Orange light was used for this experiment. The whole experiment was conducted in a dark room, and the relative humidity and temperature were maintained at 70 ± 5% and 25 ± 1°C, respectively. A 10 μl of volatile compound was applied to 10 mm × 10 mm filter papers (Whatman No. 1) that was placed in the chamber connected to one arm of the Y-tube. A separate Y-tube was used for male and female moths.
To perform bioassays, a 3-day-old moth, either male or female, was released in the base of the Y-tube. Each insect was given 10 min to respond to the treatment, and the number of moths showing attraction, repulsion or no response was counted. Approximately 30 min before onset of the trial, male and female adults were placed into separate glass tubes (50 ml) and covered with a cotton plug to avoid exposure to tested volatiles. In total, 60 adults (30 male and 30 female) were tested per volatile compound, and χ^2 tests were applied to evaluate the number of M. separata individuals attracted to or repelled by volatiles.

Sequence of MsepCSP8 (A0A1V1WC03 entry or part of it): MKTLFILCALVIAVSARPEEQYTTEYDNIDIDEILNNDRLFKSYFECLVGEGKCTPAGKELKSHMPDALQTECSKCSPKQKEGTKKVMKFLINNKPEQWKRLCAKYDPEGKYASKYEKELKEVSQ

Compound	pIC50 (MsepCSP8; IC50, pH 5.0)	pIC50 (MsepCSP8; IC50, pH 7.4)	pKi (MsepCSP8; Ki, pH 5.0)	pKi (MsepCSP8; Ki, pH 7.4)	pIC50 (MsepCSP8; pH 5.0, read-out: IC50)	pKi (MsepCSP8; pH 7.4, read-out: Ki)	pIC50 (MsepCSP8; pH 7.4, read-out: IC50)	further results
C=CC(C)(O)CCC=C(C)CCC=C(C)C (mixture of isomers) [Nerolidol]	4.81	4.83	4.94	4.98				
CC1=CCC2C(C1)C2(C)C (single isomer, unassigned; (+)) [(+)-3-Carene]					4.75	5.03	4.87	binding affinity to MsepCSP8 in words (MsepCSP8): high binding affinities; pKi (MsepCSP8; pH 5.0, read-out: Ki): 4.88
CC1(C)CCC[C@@]2(C)[C@@H]3CC4C([C@@H]31)C42C (single isomer, unassigned; (+)) [(+)-Longicyclene]					3.40	4.55	4.40	pKi (MsepCSP8; pH 5.0, read-out: Ki): 3.53
C=C(C)C1CCC2(C)OC2C1 (single isomer, unassigned; (-)) [(–)-Limonene oxide]					4.33	4.91	4.76	pKi (MsepCSP8; pH 5.0, read-out: Ki): 4.46
c1ccc(Nc2cccc3ccccc23)cc1 [1-NPN, N-phenyl-1-naphthylamine, reference compound]								pKd (MsepCSP8; pH 5.0): 5.53; pKd (MsepCSP8; pH 7.4): 5.62
C=CC(O)CCCCC (centres unmarked) [1-Octen-3-ol]	4.88	5.08	5.01	5.24				binding affinity to MsepCSP8 in words (MsepCSP8): bound strongly
CCCCCC(C)O (centres unmarked) [2-Heptanol]	4.59	4.62	4.72	4.78				
CCC(C)C=O (centres unmarked) [2-Methylbutyraldehyde]	4.67	4.86	4.80	5.02				binding affinity to MsepCSP8 in words (MsepCSP8): high affinities
CCCCCCCCCC(C)=O [2-Undecanone]	4.65	4.45	4.78	4.60				
CCC(O)CC [3-Pentanol]	4.76	4.80	4.89	4.95				
Cc1ccc(C(C)C)cc1 [4-Isopropyltoluene]	5.11	4.74	5.24	4.90				
CC1=CC[C@@H]2[C@@H]3[C@H]1[C@@]2(C)CCCC3(C)C [(+)-α-longipinene]					4.84	5.01	4.85	binding affinity to MsepCSP8 in words (MsepCSP8): high binding affinities; pKi (MsepCSP8; pH 5.0, read-out: Ki): 4.97
C=C1CC[C@@H]2C[C@H]1C2(C)C [(R)-(+)-β-pinene]					4.58	5.01	4.86	binding affinity to MsepCSP8 in words (MsepCSP8): high binding affinities; pKi (MsepCSP8; pH 5.0, read-out: Ki): 4.71
CC1=CC(=O)[C@H]2C[C@@H]1C2(C)C [(S)-(-)-verbenone]					4.67	5.03	4.88	binding affinity to MsepCSP8 in words (MsepCSP8): high binding affinities; pKi (MsepCSP8; pH 5.0, read-out: Ki): 4.79
C=C1CC[C@H]2O[C@]2(C)CC[C@@H]2[C@@H]1CC2(C)C [(–)-Caryophyllene oxide]	4.99	4.71	5.12	4.86				
CC/C=C\CCO [Cis-3-hexen-1-ol]	4.53	4.67	4.65	4.82				
CC/C=C\CCOC(C)=O [Cis-3-hexenyl acetate]	4.61	4.68	4.74	4.83				
OC1CCCCC1 [Cyclohexanol]								behavioral response in words (Mythimna separata; male and female moths): distinct preference
CCCCCCCCCC=O [Decanal]	4.51	4.69	4.64	4.84				
CCCCCCCCCCCC=O [Dodecyl aldehyde]					4.43	4.76	4.61	pKi (MsepCSP8; pH 5.0, read-out: Ki): 4.56
CCC/C=C/COC(C)=O [E-2-Hexen-1-ol acetate]	4.20	4.84	4.33	4.99				
CCCCCCCCCCCCCCCCCCCC [Eicosane]	4.33	4.32	4.46	4.47				
CCOC(C)=O [Ethyl acetate]	4.54	4.17	4.66	4.33				

Compound	pIC50 (MsepCSP8; IC50, pH 5.0)	pIC50 (MsepCSP8; IC50, pH 7.4)	pKi (MsepCSP8; Ki, pH 5.0)	pKi (MsepCSP8; Ki, pH 7.4)	pIC50 (MsepCSP8; pH 5.0, read-out: IC50)	pKi (MsepCSP8; pH 7.4, read-out: Ki)	pIC50 (MsepCSP8; pH 7.4, read-out: IC50)	further results
CC12CCC(CC1)C(C)(C)O2 [Eucalyptol]	4.06	4.60	4.18	4.75				
CCCCCCCCCCCCCCCC [Hexadecane]	4.99	4.83	5.12	4.98				
CCCCCC [Hexane]	4.58	5.01	4.71	5.17				binding affinity to MsepCSP8 in words (MsepCSP8): bound highly
C=CC(C)(O)CCC=C(C)C (centres unmarked) [Linalool]	4.60	4.84	4.73	4.99				
COC(=O)c1ccccc1 [Methyl benzoate]	4.67	4.90	4.80	5.06				binding affinity to MsepCSP8 in words (MsepCSP8): bound highly
C=CC(=C)CCC=C(C)C [Myrcene]	4.76	4.78	4.89	4.93				
CCCCCCCCCCCCCCCCCCC [Nonadecane]	4.70	4.60	4.83	4.75				
CCCCCCCCC=O [Nonanal]	4.83	4.90	4.96	5.05				binding affinity to MsepCSP8 in words (MsepCSP8): high affinities
C=CC(C)=CCC=C(C)C [Ocimene]					4.81	4.93	4.78	pKi (MsepCSP8; pH 5.0, read-out: Ki): 4.93
CCCCCCCC [Octane]	4.80	4.43	4.93	4.59				
CCCCCCCCCCCCCCCCCCCCCCCCC [Pentacosane]	4.95	4.61	5.08	4.77				
C=C(C)[C@H]1CC=C(C)CC1 [R-(+)-Limonene]					4.72	4.78	4.63	pKi (MsepCSP8; pH 5.0, read-out: Ki): 4.85
CCCCCCCCCCCCCC [Tetradecane]	4.62	4.75	4.75	4.90				
CCC/C=C/CO [Trans-2-hexen-1-ol]	5.07	4.62	5.20	4.78				binding affinity to MsepCSP8 in words (MsepCSP8): bound strongly
CCCCCCCCCCCCCCCCCCCCC [n-Heneicosane]	4.44	5.02	4.57	5.17				binding affinity to MsepCSP8 in words (MsepCSP8): bound highly
C/C1=C\CC/C(C)=C/CC(C)(C)/C=C/C1 [α-Humulene]					4.64	4.89	4.73	pKi (MsepCSP8; pH 5.0, read-out: Ki): 4.76
CC1=CC=C(C(C)C)CC1 [α-Terpinene]								behavioral response (attraction) of females (Mythimna separata; 3-day-old female moths, 10 μl volatile vs liquid paraffin): 70%; behavioral response (attraction) of males (Mythimna separata; 3-day-old male moths, 10 μl volatile vs liquid paraffin): 66%
CC(=O)/C=C/C1=C(C)CCCC1(C)C [β-Lonone]	4.64	4.99	4.77	5.14				binding affinity to MsepCSP8 in words (MsepCSP8): high affinity
(+)-Fenchone					4.70	4.68	4.53	pKi (MsepCSP8; pH 5.0, read-out: Ki): 4.83
(–)-Isolongifolene					4.21	4.76	4.61	pKi (MsepCSP8; pH 5.0, read-out: Ki): 4.34
(–)-Limonene					4.82	4.55	4.39	pKi (MsepCSP8; pH 5.0, read-out: Ki): 4.95
Farnesene					4.70	4.88	4.73	
